Reference: PMC3817062, “N-Alkylated Aminoacyl sulfamoyladenosines as Potential Inhibitors of Aminoacylation Reactions and Microcin C Analogues Containing D-Amino Acids” (PLoS ONE, 2013)
Non-standard residues stand in square brackets, D forms with d. Residues, ends and D or L forms follow the SMILES beside them. *: point of attachment. AspNHSO2(5'-O-Ado) = Nc1ncnc2c1ncn2[C@@H]1O[C@H](COS(=O)(=O)NC(=O)[C@H](CC(=O)O)N*)[C@@H](O)[C@H]1O; X1 = Nc1ncnc2c1ncn2[C@@H]1O[C@H](COS(=O)(=O)NC(=O)[C@@H](CC(=O)O)N*)[C@@H](O)[C@H]1O; For = O=C*

Legend:
GlyRS [1] = target: T1, GlyRS (Escherichia coli, UniProt P00960); conditions: positive control, previously shown; cited from earlier work
T1 sequence (P00961 2-689): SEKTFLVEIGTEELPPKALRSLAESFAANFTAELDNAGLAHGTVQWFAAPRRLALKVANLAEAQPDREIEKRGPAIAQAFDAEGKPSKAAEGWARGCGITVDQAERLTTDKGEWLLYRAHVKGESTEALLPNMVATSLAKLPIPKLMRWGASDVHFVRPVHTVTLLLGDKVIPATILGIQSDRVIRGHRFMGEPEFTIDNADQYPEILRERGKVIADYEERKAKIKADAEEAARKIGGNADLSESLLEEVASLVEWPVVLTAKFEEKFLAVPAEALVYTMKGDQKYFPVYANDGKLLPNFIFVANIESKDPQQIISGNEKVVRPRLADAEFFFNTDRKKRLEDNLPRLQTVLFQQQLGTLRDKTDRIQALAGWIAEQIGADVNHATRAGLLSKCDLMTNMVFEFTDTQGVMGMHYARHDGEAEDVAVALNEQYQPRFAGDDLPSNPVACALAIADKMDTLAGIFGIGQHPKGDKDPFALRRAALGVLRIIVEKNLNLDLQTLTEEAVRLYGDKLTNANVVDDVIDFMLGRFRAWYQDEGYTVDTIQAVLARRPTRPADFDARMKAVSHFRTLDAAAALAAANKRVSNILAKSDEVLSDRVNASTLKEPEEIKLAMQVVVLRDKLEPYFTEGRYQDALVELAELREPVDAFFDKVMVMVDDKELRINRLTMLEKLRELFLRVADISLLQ
T1 sequence (P00960 whole entry): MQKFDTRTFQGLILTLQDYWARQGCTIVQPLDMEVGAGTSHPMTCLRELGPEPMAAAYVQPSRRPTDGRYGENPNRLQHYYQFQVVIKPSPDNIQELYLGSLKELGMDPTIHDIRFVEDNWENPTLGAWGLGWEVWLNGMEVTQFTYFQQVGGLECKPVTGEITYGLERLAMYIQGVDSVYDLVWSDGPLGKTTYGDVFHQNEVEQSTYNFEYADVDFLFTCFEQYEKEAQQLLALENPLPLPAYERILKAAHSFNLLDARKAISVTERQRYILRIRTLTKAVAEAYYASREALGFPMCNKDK

[2] = test system: peptidases PepA, PepB and PepN; assay: Metabolism (processing) of the peptide chain by peptidases, release of the active moiety; format: in vitro ADME; conditions: E. coli S30 cell extracts; concluded from aminoacylation inhibition experiments
Source text: This is a somewhat expected result as it has frequently been shown that the introduction of (D)-amino acids can prevent the hydrolysis by peptidases.
Compounds 5-7 were especially designed to circumvent this problem; all three compounds contain L-amino acids at the sixth and seventh position, allowing endopeptidases to cleave between these two L-amino acids, resulting in release of the active moiety. […] Also the modification in compound 6, inspired by albomycin whereby pepN hydrolyzes the peptide bond between a serine and a modified amino acid carrying an acidic side chain [22], could not rescue the activity. […] Whether or not incorporation of (D)-amino acids in the transport peptide part interferes with uptake of the McC derivatives by the YejABEF transporter is less relevant here, as in vitro tests already show lack of activity. Additional reduced uptake of the analogues 4-7 however cannot be excluded.
Cells were grown in 50 mL LB-medium. After centrifuging at 3000 × g for 10 min. the supernatant was discarded and the pellet was resuspended in 40 mL buffer containing: Tris.HCl or Hepes.KOH (pH = 8.0) (20 mM), MgCl2 (10 mM), KCl (100 mM). […]
(§1) 1 μL of solution containing inhibitor, 3 μL of E. coli S30 extracts was added. […] Following the addition of scintillation liquid, the amount of radioactivity was determined in a scintillation counter.

McC-sensitive E. coli = assay: Whole cell activity determination (OD600), all cells tested; format: cell-based; conditions: all cells tested (Ara-Yej strain, E. coli lacking rim genes); OD600 after 8 h, 37 °C, LB; data not shown
LeuRS = target: T2, LeuRS (Escherichia coli, UniProt P07813); assay: In vitro tRNA aminoacylation in S30 cell extract, LeuRS; format: biochemical, E. coli; conditions: 50 µM, wild-type cell extract, triplicate; Figure 3
T2 construct: endogenous in cells; host or cells: E. coli wild-type S30 cell extract
T2 sequence (P07813 whole entry): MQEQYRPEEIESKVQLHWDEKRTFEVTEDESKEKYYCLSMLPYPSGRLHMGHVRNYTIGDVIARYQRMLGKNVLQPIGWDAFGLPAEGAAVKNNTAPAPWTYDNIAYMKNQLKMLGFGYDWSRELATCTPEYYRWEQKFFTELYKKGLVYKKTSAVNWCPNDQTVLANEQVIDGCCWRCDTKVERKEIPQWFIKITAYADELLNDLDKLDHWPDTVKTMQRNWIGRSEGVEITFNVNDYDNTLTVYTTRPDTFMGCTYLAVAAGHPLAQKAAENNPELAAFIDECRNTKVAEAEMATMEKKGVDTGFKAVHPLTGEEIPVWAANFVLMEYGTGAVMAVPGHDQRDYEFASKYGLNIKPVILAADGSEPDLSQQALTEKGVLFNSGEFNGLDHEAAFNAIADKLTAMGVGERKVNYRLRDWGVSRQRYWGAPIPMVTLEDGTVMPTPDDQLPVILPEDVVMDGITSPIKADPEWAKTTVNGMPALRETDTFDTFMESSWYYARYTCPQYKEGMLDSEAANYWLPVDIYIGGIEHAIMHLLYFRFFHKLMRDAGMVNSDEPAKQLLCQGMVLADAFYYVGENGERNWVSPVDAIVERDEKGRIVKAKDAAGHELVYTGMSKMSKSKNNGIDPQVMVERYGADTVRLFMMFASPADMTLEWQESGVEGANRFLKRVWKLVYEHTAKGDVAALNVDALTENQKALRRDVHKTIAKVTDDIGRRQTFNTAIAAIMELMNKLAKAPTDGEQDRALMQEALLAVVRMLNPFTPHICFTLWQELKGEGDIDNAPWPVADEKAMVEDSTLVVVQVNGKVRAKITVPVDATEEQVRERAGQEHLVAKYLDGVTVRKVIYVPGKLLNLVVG
Protocol: (§2) The growth inhibitory properties for all new compounds were determined by measuring the optical density reached by cultures of McC-sensitive E. coli in wells of microtiter plates in the presence of various concentrations of the respective inhibitors. As shown earlier, the intracellular target of McC analogs is determined by the C-terminal amino acid, which remains attached onto the sulfamoyladenosine following intracellular metabolism. To facilitate activity evaluation and the mechanism of action studies of newly synthesized compounds, an E. coli tester strain Ara-Yej (BW39758) was used, where the yejABEF operon is under control of the arabinose-inducible araBAD promoter. […] In addition to the Ara-Yej strain, E. coli lacking rim genes (and therefore hypersensitive to McC) was used as a tester strain. […] In in vitro aminoacylation experiments, compound 3 was tested for its potential to inhibit ProRS, GlyRS and AlaRS and compound 2 was tested for its ability to inhibit LeuRS in a wild-type cell extract. Established inhibitors of these enzymes are the respective 5’-O-[N-[L-aminoacyl]-sulfamoyl]adenosines: Pro-SA, Gly-SA, Ala-SA and Leu-SA [2-4]. […]
as §1

AspRS = target: T3, AspRS (Escherichia coli, UniProt P21889); assay: In vitro tRNA aminoacylation in S30 cell extracts, AspRS; format: biochemical, E. coli; conditions: for inhibition of AspRS in vitro: aminoacylation in cell extracts, compound needs no metabolism
T3 construct: endogenous in cells; host or cells: S30 extracts of E. coli ΔrimL, ΔpepABN and Δdtd cells
T3 sequence (P21889 whole entry): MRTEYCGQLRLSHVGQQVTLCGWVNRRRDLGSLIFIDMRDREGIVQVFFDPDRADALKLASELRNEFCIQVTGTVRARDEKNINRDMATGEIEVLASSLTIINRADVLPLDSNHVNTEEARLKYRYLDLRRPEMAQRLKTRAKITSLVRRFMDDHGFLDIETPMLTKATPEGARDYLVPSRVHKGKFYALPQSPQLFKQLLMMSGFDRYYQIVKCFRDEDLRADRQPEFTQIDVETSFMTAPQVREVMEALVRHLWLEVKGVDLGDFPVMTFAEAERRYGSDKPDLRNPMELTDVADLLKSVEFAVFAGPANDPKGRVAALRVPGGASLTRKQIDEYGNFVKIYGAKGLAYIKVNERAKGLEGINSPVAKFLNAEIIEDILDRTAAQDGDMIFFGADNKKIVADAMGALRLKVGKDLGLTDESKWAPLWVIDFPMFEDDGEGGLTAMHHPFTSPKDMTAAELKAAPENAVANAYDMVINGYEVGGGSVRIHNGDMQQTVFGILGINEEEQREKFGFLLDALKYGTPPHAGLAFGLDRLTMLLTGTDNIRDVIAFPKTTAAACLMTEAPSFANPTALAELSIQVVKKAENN
Protocol: Figure 5 Aminoacylation experiments of the McC analogues containing (D)-amino acids at 50 µM. Upper panel: 30 min incubation with a cell extract deficient of RimL. Middle panel: 30 min incubation with a cell extract deficient of PepA, PepB and PepN. Lower panel: Comparison of two McC analogues targeting AspRS, compound 8 having a C-terminal D-configuration, compound 1f having a C-terminal (L)-configuration. Incubation was done with two different cell extracts, lacking either DTD or RimL.
To investigate whether compound 8 would be more resistant than compound 1f to MccF-catalyzed hydrolysis and/or MccE/RimL-catalyzed acetylation, and to investigate a possible role of DTD, a time-course of tRNA^Asp aminoacylation inhibition was followed in two different cell extracts, one prepared from cells lacking Rim proteins, and another from cells lacking DTD. From Figure 5 (lower panel) it can be observed that at time point zero, i.e., immediately after addition of the compounds, there was no inhibition since the compounds were still unmetabolized. […] Upon further incubation, the reaction recovered from inhibition for both compounds. For compound 8 this effect was more pronounced than for compound 1f, especially in cell extracts prepared from cells lacking DTD proteins.
To assess the degree of inhibition of the aminoacylation reaction, in vitro tests were performed using the relevant S30 cell extracts.
Cells were grown in 50 mL LB-medium. After centrifuging at 3000 × g for 10 min. the supernatant was discarded and the pellet was resuspended in 40 mL buffer containing: Tris.HCl or Hepes.KOH (pH = 8.0) (20 mM), MgCl2 (10 mM), KCl (100 mM). The cell-suspension was centrifuged again at 4800 rpm. This procedure was repeated 2 times. The pellet was resuspended in 1 mL of the following buffer Tris.HCl or Hepes.KOH (pH = 8.0) (20 mM), MgCl2 (10 mM), KCl (100 mM), DTT (1 mM) and kept at 0 °C. Subsequently, the cells were sonicated for 10 sec. and left at 0 °C for 10 min. This procedure was repeated for 5-8 times. The lysate was centrifuged at 15000 g for 30 min at +4 °C.
1 μL of solution containing inhibitor, 3 μL of E. coli S30 extracts was added. Next, 16 μL of the following aminoacylation mixture was added: Tris.HCl (30mM, pH 8.0), DTT (1 mM), bulk of E. coli tRNA (5 g/l), ATP (3 mM), KCl (30 mM), MgCl2 (8 mM), and the specified, radio labeled amino acid (40 μM). The reaction products were precipitated in cold 10% TCA on Whatman 3MM papers, 5 min. after the aminoacylation mixture was added. The aminoacylation reaction was carried out at room temperature. Depending on whether or not processing was needed, variable time intervals were included between the addition of the cell-extract and the addition of the aminoacylation mixture. After thorough washing with cold 10% TCA, the papers were washed twice with acetone and dried on a heating plate. Following the addition of scintillation liquid, the amount of radioactivity was determined in a scintillation counter.

ProRS [3] = target: T4, ProRS (Escherichia coli, UniProt P16659); conditions: positive control, previously shown; cited from earlier work
T4 construct: endogenous in cells; host or cells: E. coli wild-type S30 cell extract
T4 sequence (P16659 whole entry): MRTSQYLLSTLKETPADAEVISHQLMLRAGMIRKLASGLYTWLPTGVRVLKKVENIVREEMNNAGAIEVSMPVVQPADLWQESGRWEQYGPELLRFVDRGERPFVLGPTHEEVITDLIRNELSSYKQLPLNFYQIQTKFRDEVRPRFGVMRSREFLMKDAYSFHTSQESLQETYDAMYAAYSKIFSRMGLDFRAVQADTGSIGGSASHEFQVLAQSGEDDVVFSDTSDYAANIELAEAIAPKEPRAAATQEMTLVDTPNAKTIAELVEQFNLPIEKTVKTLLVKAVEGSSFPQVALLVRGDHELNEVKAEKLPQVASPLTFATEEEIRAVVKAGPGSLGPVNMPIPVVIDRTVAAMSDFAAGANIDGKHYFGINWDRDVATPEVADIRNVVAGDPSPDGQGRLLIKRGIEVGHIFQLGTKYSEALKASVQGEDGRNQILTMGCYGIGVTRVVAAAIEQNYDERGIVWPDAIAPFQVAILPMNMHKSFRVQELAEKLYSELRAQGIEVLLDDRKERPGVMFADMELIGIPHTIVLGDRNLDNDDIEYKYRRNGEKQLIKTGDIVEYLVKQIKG
Protocol: (§3) All experiments were performed in triplicate.

GlyRS [4] = target: T1, GlyRS; assay: In vitro tRNA aminoacylation in S30 cell extract, GlyRS; format: biochemical, E. coli; parameters: endogenous in cells; host or cells: E. coli wild-type S30 cell extract; conditions: 50 µM, wild-type cell extract, triplicate; Figure 3
Protocol: as §2, §1

AlaRS [5] = target: T5, AlaRS (Escherichia coli, UniProt P00957); assay: In vitro tRNA aminoacylation in S30 cell extract, AlaRS; format: biochemical, E. coli; conditions: 50 µM, wild-type cell extract, triplicate; Figure 3
T5 construct: endogenous in cells; host or cells: E. coli wild-type S30 cell extract
T5 sequence (P00957 whole entry): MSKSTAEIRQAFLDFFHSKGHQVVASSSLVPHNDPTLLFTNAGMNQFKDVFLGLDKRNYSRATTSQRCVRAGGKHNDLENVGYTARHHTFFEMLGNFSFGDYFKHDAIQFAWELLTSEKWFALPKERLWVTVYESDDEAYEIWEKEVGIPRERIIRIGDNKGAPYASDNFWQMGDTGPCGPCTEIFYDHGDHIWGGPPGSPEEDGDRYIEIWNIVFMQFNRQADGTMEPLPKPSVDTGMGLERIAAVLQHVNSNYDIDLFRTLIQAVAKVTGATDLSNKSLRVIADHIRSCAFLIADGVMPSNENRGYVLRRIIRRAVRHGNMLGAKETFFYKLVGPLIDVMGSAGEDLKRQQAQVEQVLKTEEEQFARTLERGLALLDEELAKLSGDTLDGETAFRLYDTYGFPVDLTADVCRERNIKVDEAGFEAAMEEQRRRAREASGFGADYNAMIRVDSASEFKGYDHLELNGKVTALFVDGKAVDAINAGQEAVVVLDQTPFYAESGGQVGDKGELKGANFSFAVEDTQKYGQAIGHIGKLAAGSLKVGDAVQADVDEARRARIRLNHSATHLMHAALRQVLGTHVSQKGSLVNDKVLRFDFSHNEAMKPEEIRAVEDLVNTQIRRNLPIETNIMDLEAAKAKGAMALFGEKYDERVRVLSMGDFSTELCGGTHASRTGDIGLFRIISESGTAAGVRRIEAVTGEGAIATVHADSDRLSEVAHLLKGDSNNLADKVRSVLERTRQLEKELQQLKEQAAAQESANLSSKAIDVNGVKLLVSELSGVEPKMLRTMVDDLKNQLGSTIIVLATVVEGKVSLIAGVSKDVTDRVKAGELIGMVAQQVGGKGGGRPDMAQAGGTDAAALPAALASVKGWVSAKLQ
Protocol: as §2, §1

ProRS [6] = target: T4, ProRS; assay: In vitro tRNA aminoacylation in S30 cell extract, ProRS; format: biochemical, E. coli; conditions: 50 µM, wild-type cell extract, triplicate; Figure 3
Protocol: as §2, §1

AlaRS [7] = target: T5, AlaRS; conditions: positive control, previously shown; cited from earlier work
Protocol: as §3

[8] = time course, extract from cells lacking DTD, at 15 min

## NCC(=O)NS(=O)(=O)OC[C@H]1O[C@@H](n2cnc3c(N)ncnc32)[C@H](O)[C@@H]1O [Gly-SA]
GlyRS [1]
  inhibition of GlyRS: potent inhibitors

## CSCC[C@H](NC=O)C(=O)N[C@H](CCCNC(=N)N)C(=O)N[C@@H](C(=O)NCC(=O)N[C@H](CC(N)=O)C(=O)N[C@H](C)C(=O)N[C@@H](CC(=O)O)C(=O)NS(=O)(=O)OC[C@H]1O[C@@H](n2cnc3c(N)ncnc32)[C@H](O)[C@@H]1O)[C@H](C)O [compound 4] (For-M[dR][dT]G[dN][dA]-{AspNHSO2(5'-O-Ado)})
[2]
  metabolism by the peptidases (release of the active moiety): not capable of hydrolyzing

## CN[C@@H](CC(C)C)C(=O)NS(=O)(=O)OC[C@H]1O[C@@H](n2cnc3c(N)ncnc32)[C@H](O)[C@@H]1O [compound 2, 5’-O-[N-[(L)-N-methyl-leucyl]-sulfamoyl]adenosine]
McC-sensitive E. coli
  whole-cell activity (growth inhibition): inactive
LeuRS
  inhibition of LeuRS aminoacylation: inactive

## CSCC[C@H](NC=O)C(=O)N[C@@H](CCCNC(=N)N)C(=O)N[C@H](C(=O)NCC(=O)N[C@@H](CC(N)=O)C(=O)N[C@@H](C)C(=O)N[C@H](CC(=O)O)C(=O)NS(=O)(=O)OC[C@H]1O[C@@H](n2cnc3c(N)ncnc32)[C@H](O)[C@@H]1O)[C@@H](C)O [compound 8] (For-MRTGNA-X1)
[2]
  metabolism by the peptidases (release of the active moiety): can metabolize
AspRS; time course, extract from cells lacking DTD, after 60 min
  reduction of esterification of Asp-C14 to tRNAAsp: 44%
AspRS; [8]
  incorporation of Asp-C14 into tRNAAsp: 11%
  inhibition of tRNAAsp aminoacylation: 89%

## Nc1ncnc2c1ncn2[C@@H]1O[C@H](COS(=O)(=O)NC(=O)[C@@H](N)CC(=O)O)[C@@H](O)[C@H]1O [compound 10, (L)-aspartyl-sulfamoyladenosine, reference compound]
AspRS
  inhibition of AspRS in vitro: equally inhibitory

## Nc1ncnc2c1ncn2[C@@H]1O[C@H](COS(=O)(=O)NC(=O)[C@H](N)CC(=O)O)[C@@H](O)[C@H]1O [compound 9, (D)-aspartyl-sulfamoyladenosine]
AspRS
  inhibition of AspRS in vitro: can also inhibit AspRS
AspRS; listed as (D)-D-SA
  inhibition of AspRS in vitro: equally inhibitory

## Nc1ncnc2c1ncn2[C@@H]1O[C@H](COS(=O)(=O)NC(=O)[C@@H]2CCCN2)[C@@H](O)[C@H]1O [Pro-SA, 5’-O-[N-[(L)-prolyl]-sulfamoyl]adenosine]
ProRS [3]
  inhibition of ProRS: potent inhibitors

## CNCC(=O)NS(=O)(=O)OC[C@H]1O[C@@H](n2cnc3c(N)ncnc32)[C@H](O)[C@@H]1O [compound 3, sarcosyl-sulfamoyladenosine]
GlyRS [4]
  inhibition of GlyRS aminoacylation: could not be targeted
AlaRS [5]
  inhibition of AlaRS aminoacylation: could not be targeted
ProRS [6]
  inhibition of ProRS aminoacylation: does not show any major inhibitory binding affinity
McC-sensitive E. coli
  whole-cell activity (growth inhibition): inactive

## C[C@H](N)C(=O)NS(=O)(=O)OC[C@H]1O[C@@H](n2cnc3c(N)ncnc32)[C@H](O)[C@@H]1O [Ala-SA]
AlaRS [7]
  inhibition of AlaRS: potent inhibitors
